Measured values: patent publication US20100119483A1, “PEPTIDE VIRAL ENTRY INHIBITORS” (Schering Corporation, priority 2004, published 2010)
“And” between values parts separate entries of the source, which are not always exact repeats. Equal entries are not always repeated.

Test system: HCV pseudoparticles
Assay: HCV pseudoparticle (HCVpp) entry assay in Huh7 hepatoma cells, luciferase readout
Assay type: cell-based, hepatitis C virus
Settings: for % of control at ~30 uM: percentage of hepatitis C virus cellular entry at 30 μM peptide vs uninhibited control; for viral entry as a percentage of the uninhibited control: HCV entry, duplicates
Protocol: HCV pseudotype particle generation. Single cycle HCV pseudoparticles are composed of a replication-defective HIV genome and HCV envelope proteins. These pseudoparticles were made by transfecting 293T cells with 5 ug of each pNL43E-R-luc (Chen et al., J. Virol. 68(2):654-60 (1994)) and plasmid expressing HCV envelope proteins pCMV/E1-2 with profection transfection kit from Promega (Madison, Wis.). The medium was refreshed 12-24 hours after transfection and supernatant was collected 48 hours after transfection. The supernatant from a transfection of only pNL43E-R-luc was used each time as a control for non specific entry events.
Infection of hepatoma cell lines with HCV pseudotype particles and screen for inhibitory peptides. The hepatoma cells, Huh7, was seeded at 8000 cells in 90 ul medium in 96-well plate. In the case of the inhibitor screen, the inhibitor was incubated with cells for one hour at 37° C. and then 50 ul viral supernatant was added to the cells 24 hours after seeding. The viral stock was pre-tittered and diluted to yield approximately 10,000 to 20,000 RLU. The cells were incubated at 37° C. with 5% CO2 for additional 72 hours and were harvested for luciferase assay. Peptide stocks were prepared in 100% DMSO at 10 mg/ml and were first screened at 100 ug/ml and then a dose responsive curve was generated with 10 points 3-fold titration starting from 100 ug/ml.
The peptide of SEQ ID NO: 77 was first serial diluted by the factor of 3 in 100% DMSO from 100 ug/ml and then transferred to the assay plates at 100-fold dilution. The peptide was first incubated with cells and HCVpp (A) or HIVpp (B), respectively, for 30 minutes at […] in this experiment. Then, the medium containing the peptide was removed from the cells and virus with peptide was added to the cells. Cells were incubated for 72 hours and then were harvested for luciferase assay. Two separate trials were performed.
In addition, the peptide of SEQ ID NO: 77 was mutated at several positions and assayed in the HCV entry assay discussed above. […] The assays were performed essentially as described above.

[1] = 0.00003 uM of peptide, two values per peptide and row
[2] = 0.0001 uM of peptide, two values per peptide
[3] = 0.0003 uM of peptide, two values per peptide
[4] = 0.001 uM of peptide, two values per peptide
[5] = 0.003 uM of peptide, two values per peptide
[6] = 0.01 uM of peptide, two values per peptide
[7] = 0.03 uM of peptide, two values per peptide
[8] = 0.1 uM of peptide, two values per peptide
[9] = 0.3 uM of peptide, two values per peptide
[10] = 30 uM of peptide, two values per peptide
[11] = 0.1 nM of peptide (printed for three rows), two values per peptide and row
[12] = 0.3 nM of peptide, two values per peptide
[13] = 1 nM of peptide, two values per peptide
[14] = 3 nM of peptide, two values per peptide
[15] = 10 nM of peptide, two values per peptide
[16] = 30 nM of peptide, two values per peptide
[17] = 100 nM of peptide, two values per peptide
[18] = 300 nM of peptide, two values per peptide
[19] = 10000 nM of peptide, two values per peptide
[20] = 30000 nM of peptide, two values per peptide

A-I-K-W-G-Y-V-L-L-L-F-L-L (AIKWGYVLLLFLL; HCV peptide) [SEQ ID NO: 84, Gly-scan]
% control (HCVpp entry), glycine scanning [1]: 118 % control and 84 % control and 87 % control and 110 % control | % control (HCVpp entry), glycine scanning [2]: 62 % control and 75 % control | % control (HCVpp entry), glycine scanning [3]: 91 % control and 81 % control | % control (HCVpp entry), glycine scanning [4]: 74 % control and 73 % control | % control (HCVpp entry), glycine scanning [5]: 70 % control | % control (HCVpp entry), glycine scanning [6]: 72 % control and 53 % control | % control (HCVpp entry), glycine scanning [7]: 62 % control and 52 % control | % control (HCVpp entry), glycine scanning [8]: 41 % control and 39 % control | % control (HCVpp entry), glycine scanning [9]: 37 % control and 57 % control | % control (HCVpp entry), glycine scanning [10]: 22 % control and 38 % control | % of control at ~30 uM: 19%

A-I-K-W-E-Y-V-P-L-L-F-L-L (AIKWEYVPLLFLL; HCV peptide) [SEQ ID NO: 122]
% control (HCVpp entry), proline scanning [11]: 81 % control and 70 % control and 89 % control and 86 % control and 115 % control and 111 % control | % control (HCVpp entry), proline scanning [12]: 105 % control and 83 % control | % control (HCVpp entry), proline scanning [13]: 73 % control and 100 % control | % control (HCVpp entry), proline scanning [14]: 106 % control and 80 % control | % control (HCVpp entry), proline scanning [15]: 85 % control and 67 % control | % control (HCVpp entry), proline scanning [16]: 70 % control and 113 % control | % control (HCVpp entry), proline scanning [17]: 75 % control and 59 % control | % control (HCVpp entry), proline scanning [18]: 76 % control and 53 % control | % control (HCVpp entry), proline scanning [19]: 54 % control and 43 % control

A-I-K-W-E-Y-V-L-L-L-F-P-L (AIKWEYVLLLFPL; HCV peptide) [SEQ ID NO: 126]
% control (HCVpp entry), proline scanning [11]: 83 % control and 66 % control and 89 % control and 87 % control and 104 % control and 119 % control | % control (HCVpp entry), proline scanning [12]: 88 % control and 91 % control | % control (HCVpp entry), proline scanning [13]: 88 % control and 93 % control | % control (HCVpp entry), proline scanning [14]: 98 % control and 89 % control | % control (HCVpp entry), proline scanning [15]: 86 % control and 76 % control | % control (HCVpp entry), proline scanning [16]: 83 % control and 82 % control | % control (HCVpp entry), proline scanning [17]: 68 % control and 81 % control | % control (HCVpp entry), proline scanning [18]: 72 % control and 85 % control | % control (HCVpp entry), proline scanning [19]: 43 % control and 44 % control | % control (HCVpp entry), proline scanning [20]: 55 % control and 80 % control

LLFLLLVYEWKIA [retro-inverso]
viral entry as a percentage of the uninhibited control (0.1 nM of peptide (three lines)): 97% | viral entry as a percentage of the uninhibited control (0.3 nM of peptide, 0.0003 µM): 91% and 81% and 74% and 99% and 126% and 117% | viral entry as a percentage of the uninhibited control (1 nM of peptide, 0.001 µM): 83% and 72% and 91% and 115% and 106% | viral entry as a percentage of the uninhibited control (3 nM of peptide, 0.003 µM): 88% and 68% and 78% and 92% and 86% and 98% | viral entry as a percentage of the uninhibited control (10 nM of peptide, 0.01 µM): 66% and 100% and 76% and 84% and 128% and 104% | viral entry as a percentage of the uninhibited control (30 nM of peptide, 0.03 µM): 68% and 62% and 76% and 113% and 121% and 110% | viral entry as a percentage of the uninhibited control (30000 nM of peptide, 30 µM): 107% and 87% and 103% and 125% and 95% | activity compared to the wild type 13-mer peptide (HCVpp entry inhibition, in words): completely lost activity

A-I-K-W-E-Y-V-L-L-L-F-A-L (AIKWEYVLLLFAL; HCV peptide) [SEQ ID NO: 96, Ala-scan]
% control (HCVpp entry), alanine scanning [11]: 95 % control and 86 % control and 100 % control and 96 % control and 72 % control and 132 % control | % control (HCVpp entry), alanine scanning [12]: 91 % control and 98 % control | % control (HCVpp entry), alanine scanning [13]: 124 % control and 78 % control | % control (HCVpp entry), alanine scanning [14]: 76 % control and 85 % control | % control (HCVpp entry), alanine scanning [15]: 58 % control and 73 % control | % control (HCVpp entry), alanine scanning [16]: 63 % control and 67 % control | % control (HCVpp entry), alanine scanning [17]: 24 % control and 41 % control | % control (HCVpp entry), alanine scanning [18]: 36 % control and 26 % control | % control (HCVpp entry), alanine scanning [19]: 33 % control and 20 % control | % control (HCVpp entry), alanine scanning [20]: 31 % control | % of control at ~30 uM: 24%

A-I-K-W-E-Y-P-L-L-L-F-L-L (AIKWEYPLLLFLL; HCV peptide) [SEQ ID NO: 121]
% control (HCVpp entry), proline scanning [11]: 77 % control and 95 % control and 91 % control and 115 % control and 104 % control and 90 % control | % control (HCVpp entry), proline scanning [12]: 68 % control and 84 % control | % control (HCVpp entry), proline scanning [13]: 76 % control and 110 % control | % control (HCVpp entry), proline scanning [14]: 85 % control and 87 % control | % control (HCVpp entry), proline scanning [15]: 75 % control and 66 % control | % control (HCVpp entry), proline scanning [16]: 70 % control and 82 % control | % control (HCVpp entry), proline scanning [17]: 44 % control and 63 % control | % control (HCVpp entry), proline scanning [18]: 42 % control and 30 % control | % control (HCVpp entry), proline scanning [20]: 32 % control and 41 % control

A-I-K-W-E-Y-V-L-L-L-P-L-L (AIKWEYVLLLPLL; HCV peptide) [SEQ ID NO: 125]
% control (HCVpp entry), proline scanning [11]: 99 % control and 91 % control and 92 % control and 111 % control and 101 % control and 95 % control | % control (HCVpp entry), proline scanning [12]: 104 % control | % control (HCVpp entry), proline scanning [13]: 99 % control and 75 % control | % control (HCVpp entry), proline scanning [14]: 82 % control and 85 % control | % control (HCVpp entry), proline scanning [15]: 109 % control and 97 % control | % control (HCVpp entry), proline scanning [16]: 102 % control and 80 % control | % control (HCVpp entry), proline scanning [17]: 58 % control and 60 % control | % control (HCVpp entry), proline scanning [18]: 76 % control and 63 % control | % control (HCVpp entry), proline scanning [19]: 54 % control and 73 % control | % control (HCVpp entry), proline scanning [20]: 59 % control and 68 % control

K-W-E-Y-V-L-L-L-F-L-L (KWEYVLLLFLL; HCV peptide) [SEQ ID NO: 108, N-terminal truncation]
HCVpp % inh (truncated peptides tested at 50 uM in 1% DMSO): 78%

A-I-A-W-E-Y-V-L-L-L-F-L-L (AIAWEYVLLLFLL; HCV peptide) [SEQ ID NO: 88, Ala-scan]
% control (HCVpp entry), alanine scanning [11]: 96 % control and 85 % control and 87 % control and 108 % control and 109 % control | % control (HCVpp entry), alanine scanning [12]: 91 % control and 101 % control | % control (HCVpp entry), alanine scanning [13]: 100 % control and 69 % control | % control (HCVpp entry), alanine scanning [14]: 81 % control and 93 % control | % control (HCVpp entry), alanine scanning [15]: 56 % control and 60 % control | % control (HCVpp entry), alanine scanning [16]: 53 % control and 66 % control | % control (HCVpp entry), alanine scanning [17]: 37 % control and 57 % control | % control (HCVpp entry), alanine scanning [18]: 42 % control and 45 % control | % control (HCVpp entry), alanine scanning [19]: 27 % control and 32 % control | % of control at ~30 uM: 9%

A-I-P-W-E-Y-V-L-L-L-F-L-L (AIPWEYVLLLFLL; HCV peptide) [SEQ ID NO: 117]
% control (HCVpp entry), proline scanning [12]: 66 % control and 117 % control | % control (HCVpp entry), proline scanning [13]: 68 % control and 87 % control | % control (HCVpp entry), proline scanning [14]: 89 % control and 66 % control | % control (HCVpp entry), proline scanning [15]: 75 % control | % control (HCVpp entry), proline scanning [16]: 58 % control and 71 % control | % control (HCVpp entry), proline scanning [17]: 38 % control and 54 % control | % control (HCVpp entry), proline scanning [18]: 48 % control and 41 % control | % control (HCVpp entry), proline scanning [19]: 54 % control and 31 % control

G-I-K-W-E-Y-V-L-L-L-F-L-L [SEQ ID NO: 82]
% control (HCVpp entry), glycine scanning [1]: 74 % control and 88 % control and 118 % control and 120 % control | % control (HCVpp entry), glycine scanning [2]: 62 % control and 61 % control | % control (HCVpp entry), glycine scanning [3]: 68 % control and 71 % control | % control (HCVpp entry), glycine scanning [4]: 90 % control and 66 % control | % control (HCVpp entry), glycine scanning [5]: 71 % control and 80 % control | % control (HCVpp entry), glycine scanning [6]: 53 % control and 43 % control | % control (HCVpp entry), glycine scanning [7]: 46 % control and 41 % control | % control (HCVpp entry), glycine scanning [8]: 33 % control and 27 % control | % control (HCVpp entry), glycine scanning [9]: 33 % control and 25 % control | % control (HCVpp entry), glycine scanning (10 uM of peptide, two values per peptide): 33 % control and 29 % control | % control (HCVpp entry), glycine scanning [10]: 18 % control and 29 % control | % of control at ~30 uM: 22%
